“And” between values parts separate entries of the source, which are not always exact repeats. Equal entries are not always repeated.
Tested on: T lymphocyte
Assay: T lymphocyte cell proliferation assay (CFSE, CD4+/CD8+ flow cytometry)
Assay type: cell-based, human
Experimental: T lymphocyte cell proliferation assay was performed according to a reported method[58] with some modification. Briefly, 5 × 10^6 cells /mL cells were stained 2.5 μM CFSE (Tonbo Biosciences) and incubated at 37 °C for 12 min. Then washed and discarded the supernatant and adjusted the CFSE stained cell to 1.75 × 10^6 cells /mL. Cells were diluted in 1640 completed medium containing 5 μg/mL anti-CD3 antibody (Tonbo Biosciences) to 3 × 10^5 cells/mL and seed in a 96-well plate or 24-well plate that pre-packaged 0.4 μg/well anti-CD28 antibody and 1.6 μg anti-CD28 antibody (24-well) (Tonbo Biosciences). Cells were then cultured for 3 days, 9 days or 12 days. Subsequently, the proportion of CD4^+ and CD8^+ cells was determined by flow cytometry (Beckman Coulter, FC500) according to manufacturer’s instruction of PE-Cyanine7 anti-Human CD8a and PE anti-Human CD4 antibodies (Tonbo Biosciences). Data analyzing was performed by using CXP software (Beckman Coulter, Supplementary Fig. 8).

[1] = Healthy donor 1, 12 day, S3-15 1
[2] = Healthy donor 1, 12 day, S3-15 5
[3] = Healthy donor 1, 12 day, S3-15 10
[4] = Healthy donor 2, 9 day, S3-15 0.2
[5] = Healthy donor 2, 9 day, S3-15 1
[6] = Healthy donor 2, 9 day, S3-15 5
[7] = Healthy donor 2, 9 day, S3-15 10
[8] = cancer patient donors 1, 3 day, S3-15 conc. 0.2
[9] = cancer patient donors 1, 3 day, S3-15 conc. 1
[10] = cancer patient donors 1, 3 day, S3-15 conc. 5
[11] = cancer patient donors 1, 3 day, S3-15 conc. 10
[12] = healthy donors 2, 9 day, S3-15 conc. 0.2
[13] = healthy donors 2, 9 day, S3-15 conc. 1
[14] = healthy donors 2, 9 day, S3-15 conc. 5
[15] = healthy donors 2, 9 day, S3-15 conc. 10

With `CC(=O)/C(=N\Nc1ccccc1C(=O)O)C(=O)Nc1ccccn1` [S3-15] the “CD8+cells in CFSE-cells (%)” value [1] was 74.2% and 73.02% and 72.56% and 72.37%, the “CFSE- cells in total cells (%)” value [1] was 15.48% and 17.29% and 17.32% and 15.2% and the “CD4+cells in total cells (%)” value [2] was 25.95% and 25.52% and 26.76% and 24.64%. The “CD8+ cells in total cells (%)” value [2] was 18.18% and 19.04% and 19.74% and 15.99%, the “CD8+cells in CFSE-cells (%)” value [2] was 75% and 70.17% and 74.02% and 72.37% and the “CFSE- cells in total cells (%)” value [2] was 16.98% and 16.53% and 18.76% and 15.2%. The “CD4+cells in total cells (%)” value [3] was 24.55% and 25.9% and 26.53% and 28.64%, the “CD8+ cells in total cells (%)” value [3] was 25.46% and 18.53% and 18.26% and 16.63% and the “CD8+cells in CFSE-cells (%)” value [3] was 73.6% and 72.27% and 73.36% and 76.51%. For the same compound, the “CFSE- cells in total cells (%)” value [3] was 23.52% and 17.38% and 18.28% and 16.8%, the “CD8+ cells in total cells (%)” value [4] was 60.09% and 60.2% and 40.04% and the “CD8+cells in CFSE-cells (%)” value [4] was 54.45% and 45.56% and 52.87%. For the same compound, the “CFSE- cells in total cells (%)” value [4] was 42.85% and 34.53% and 42.91%, the “CD8+ cells in total cells (%)” value [5] was 57.52% and 60.07% and 56.11% and the “CD8+cells in CFSE-cells (%)” value [5] was 48.8% and 34.73% and 39.45%. The “CFSE- cells in total cells (%)” value [5] was 48.46% and 65.6% and 38.41%, the “CD8+ cells in total cells (%)” value [6] was 39.84% and 41.04% and 43.72% and the “CD8+cells in CFSE-cells (%)” value [6] was 45.39% and 36.07% and 59.1%. For the same compound, the “CFSE- cells in total cells (%)” value [6] was 43.47% and 38.16% and 54.05%, the “CD8+ cells in total cells (%)” value [7] was 61.43% and 57.64% and 58.69% and the “CD8+cells in CFSE-cells (%)” value [7] was 58.1% and 47.19% and 40.24%. For the same compound, the “CFSE- cells in total cells (%)” value [7] was 51.79% and 37.98% and 32.24%, the “CD4+cells in total cells (%)” value [8] was 12.08% and 10.6% and 16.64% and 9.84% and the “CFSE-CD4+cells in CFSE-cells (%)” value [8] was 2.66% and 4.81% and 10.71% and 8.92%. The “CD4+cells in total cells (%)” value [9] was 18.36% and 15% and 12.2% and 13.48%, the “CFSE-CD4+cells in CFSE-cells (%)” value [9] was 2.71% and 4.16% and 9.18% and 4.63% and the “CD4+cells in total cells (%)” value [10] was 12.53% and 13.43% and 14.21% and 19.52%. The “CFSE-CD4+cells in CFSE-cells (%)” value [10] was 4.9% and 5.71% and 2.54% and 4.68%, the “CD4+cells in total cells (%)” value [11] was 8.57% and 13.89% and 11.58% and 13% and the “CFSE-CD4+cells in CFSE-cells (%)” value [11] was 6.23% and 7.1% and 4.66% and 4.48%. The “CD4+cells in total cells (%)” value (healthy donors 1, 3 day, S3-15 conc. 0.2) was 58.71% and 65.57% and 73.86% and 89.25%, the “CD4+cells in total cells (%)” value (healthy donors 1, 3 day, S3-15 conc. 1) was 88.98% and 73.53% and 85.9% and 87.87% and the “CD4+cells in total cells (%)” value (healthy donors 1, 3 day, S3-15 conc. 5) was 88.97% and 73.33% and 75.77% and 81.04%. For the same compound, the “CD4+cells in total cells (%)” value (healthy donors 1, 3 day, S3-15 conc. 10) was 84.3% and 76.41% and 71.29%, the “CFSE-CD4+cells in CFSE-cells (%)” value (healthy donors 1, 12 day, S3-15 conc. 0.2) was 11.71% and 10.81% and 13.35% and 13.65% and the “CFSE-CD4+cells in CFSE-cells (%)” value (healthy donors 1, 12 day, S3-15 conc. 1) was 10.81% and 12.31% and 11.84% and 10.58%. The “CFSE-CD4+cells in CFSE-cells (%)” value (healthy donors 1, 12 day, S3-15 conc. 5) was 11% and 11.24% and 11.79% and 10.58%, the “CFSE-CD4+cells in CFSE-cells (%)” value (healthy donors 1, 12 day, S3-15 conc. 10) was 15.92% and 12.12% and 12.19% and 12.32% and the “CD4+cells in total cells (%)” value [12] was 20.78% and 19.93% and 21.03%. The “CFSE-CD4+cells in CFSE-cells (%)” value [12] was 37.84% and 45.82% and 32.47%, the “CD4+cells in total cells (%)” value [13] was 25.04% and 25.92% and 25.62% and the “CFSE-CD4+cells in CFSE-cells (%)” value [13] was 42.79% and 60.67% and 51.42%. For the same compound, the “CD4+cells in total cells (%)” value [14] was 24.48% and 26.48% and 22.29%, the “CFSE-CD4+cells in CFSE-cells (%)” value [14] was 46.81% and 55.67% and 30.69% and the “CD4+cells in total cells (%)” value [15] was 21.17% and 21.09% and 21.21%. For the same compound, the “CFSE-CD4+cells in CFSE-cells (%)” value [15] was 34.98% and 45.24% and 51.76% and the lymphocyte proliferation (human lymphocytes, in words) was “did not change lymphocyte proliferation”.
